BindingDB's records for doi:10.1021/jm00063a004 (Cnrs-Cercoa, 1993)

Target: Trypsin (Sus scrofa) (UniProt P00761)
Assay: Apparent binding constant against porcine trypsin

Sequence of Trypsin (Sus scrofa) (P00761 whole entry, looked up): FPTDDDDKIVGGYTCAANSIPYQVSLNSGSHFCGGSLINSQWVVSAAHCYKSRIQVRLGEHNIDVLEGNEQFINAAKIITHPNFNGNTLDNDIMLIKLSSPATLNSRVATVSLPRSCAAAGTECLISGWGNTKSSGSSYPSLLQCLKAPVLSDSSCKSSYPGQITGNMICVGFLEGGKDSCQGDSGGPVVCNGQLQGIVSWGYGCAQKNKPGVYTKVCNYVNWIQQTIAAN

- Ki: 20 µM
SMILES: N=C(N)NCCCC1NC(=O)CNC(=O)c2cc(ccc2CBr)NC1=O (stereo unspecified) [N-[3-(11-Bromomethyl-3,6,9-trioxo-2,5,8-triaza-bicyclo[8.3.1]tetradeca-1(13),10(14),11-trien-4-yl)-propyl]-guanidine]
